For assay [1], the system named is HL-60-S cells. As to the kind of experiment: HL-60-S cell viability assay (MTS:PMS). It counts as cell-based, human. The text has this: (§1) The MDR HL-60-RV and HL-60-R8 cells were developed in Melvin S. Center's laboratory (Kansas State University) and similarly maintained in RPMI 1640 medium in the absence of drugs (Marsh W, et al, Cancer Res 46: 4053-4057, 1986; McGrath T et al, and Center M S: Biochem Biophys Res Commun 145: 1171-1176, 1987; Marsh W and Center M S: Cancer Res 47: 5080-5086, 1987; McGrath T, et al, Biochem Pharmacol 38: 3611-3619, 1989; Marquardt D, et al, Cancer Res 50: 1426-1430, 1990; Marquardt D and Center M S: J Natl Cancer Inst 83: 1089-1109, 1991; Krishnamachary N and Center M S; Cancer Res 53: 3658-3661, 1993). Every 4 weeks, these HL-60-RV and HL-60-R8 sublines were exposed to 41 nM DAU for 48 h to stabilize their MDR phenotype. This concentration of DAU, which is not cytotoxic to MDR HL-60 sublines, was removed from the culture medium at least 48 h before experimentation. […] RFs were determined by dividing the IC50 of the MDR cells by that of the sensitive WT parent cell line.

The test system of assay [2] is HL-60-S cells. As to the kind of experiment: DNA synthesis in HL-60-S cells. In kind it is cell-based, human. To be noted: for IC50: read-out: IC50, inhibition of DNA synthesis in HL-60-S cells.
A further assay concerns HL-60-R8 cells. As to the kind of experiment: Nucleoside transport in HL-60-R8 cells. In kind it is cell-based, human. The conditions noted are these: 15-min preincubation, 30 s.
Description: FIG. 15. Comparison of the concentration-dependent inhibitions of the cellular transport of purine (A) and pyrimidine (B) nucleosides by DAU (open symbols) and TT2 (closed symbols) in HL-60-S (circles), HL-60-RV (squares) and HL-60-R8 (triangles) cells in vitro. Results are expressed as % of ^3H-adenosine (26,032±2,239 cpm, 100±9%, striped area in A) and ^3H-thymidine (17,934±1,398 cpm, 100±8%, striped area in B) transported into vehicle-treated control cells over 30 s.
as §1, with “phenotype.” for “phenotype. This concentration of DAU, which is not cytotoxic to MDR HL-60 sublines, was removed from the culture medium at least 48 h before experimentation.”, “line. […]” for “line.”

The target in assay [3] is Malaria protease plasmepsin II (Plasmodium falciparum, UniProt P46925). As to the kind of experiment: Inhibition of malaria protease plasmepsin II. It counts as biochemical.

Where two headings read alike, the source gives them in different places.

Sequence of Malaria protease plasmepsin II (P46925 125-453): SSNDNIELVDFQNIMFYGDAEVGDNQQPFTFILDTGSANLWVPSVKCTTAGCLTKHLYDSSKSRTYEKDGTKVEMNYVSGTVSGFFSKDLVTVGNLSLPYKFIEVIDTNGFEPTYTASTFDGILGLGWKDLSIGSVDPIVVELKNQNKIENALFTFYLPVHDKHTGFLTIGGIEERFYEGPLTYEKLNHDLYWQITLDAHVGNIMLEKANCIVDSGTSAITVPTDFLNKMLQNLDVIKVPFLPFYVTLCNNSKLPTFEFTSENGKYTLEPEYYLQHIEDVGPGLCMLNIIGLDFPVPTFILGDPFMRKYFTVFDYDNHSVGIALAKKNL

The term IC50 denotes the concentration that gives 50% inhibition. `COc1cccc2c1C(=O)c1c(O)c3c(c(O)c1C2=O)C[C@@](O)(C(C)=O)C[C@@H]3O[C@H]1C[C@H](N)[C@H](O)[C@H](C)O1` [DAU, daunomycin, reference compound]: the IC50 amounted to 80 nM in the assay with HL-60-S cells [1] (Homo sapiens, 48 h, read-out: IC50, decrease of HL-60-S cell viability); 15 nM in the assay on HL-60-S cells [1] (Homo sapiens, 96 h, read-out: IC50, decrease of HL-60-S cell viability); 210 nM in the assay with HL-60-S cells [2] (Homo sapiens).
For the molecule `COC1=CC(=O)C2=C(C1=O)C1C3=C(C(=O)C=CC3=O)C2c2ccccc21` (stereo not drawn) [TT2, 2-Methoxy-9,10-dihydro-9,10-[1′,2′]benzenoanthracene-1,4,5,8-tetraone], the “times TT2 inhibits viability less effectively than DAU” value in the assay with HL-60-S cells [1] (HL-60-S) came to 15 times. In addition, the IC50 with HL-60-S cells [1] (HL-60-S, HL-60-RV and HL-60-R8, day 4, read-out: IC50 values, decrease of cell viability, range over the three lines) was 230 to 350 nM; in the assay with HL-60-S cells [1] (day 2, read-out: IC50, decrease of HL-60-S cell viability) it was 1300 nM; in the assay on HL-60-S cells [1] (day 4, read-out: IC50, decrease of HL-60-S cell viability) it was 230 nM; in the assay on HL-60-S cells [2], 1800 nM; in the assay on HL-60-R8 cells (purine nucleoside, read-out: IC50, cellular transport of 3H-adenosine in HL-60-R8 cells), 3700 nM; with HL-60-R8 cells (pyrimidine nucleoside, read-out: IC50, cellular transport of 3H-thymidine in HL-60-R8 cells) it was 2300 nM. Also, the “times TT2 inhibits DNA synthesis less effectively than DAU” value in the assay on HL-60-S cells [2] (HL-60-S) is listed as 9 times.
`COC1=C(Br)C(=O)C2=C(C1=O)C1C3=C(C(=O)C=C(N(C)C)C3=O)C2c2ccccc21` (stereo not drawn) [TT16, 2-Bromo-3-methoxy-6-(dimethylamino)-9,10-dihydro-9,10-[1′,2′]benzenoanthracene-1,4,5,8-tetraone] yielded a half-maximal inhibitory concentration (IC50) in assay [3] of 23600 nM.

The values above are taken from patent US6828450B2, “Triptycene analogs” (Kansas State University Research Foundation, priority 2000, dated 2004).
